Data set [1] concerns MV-4-11 cells. Briefly: Antiproliferative activity against MV-4-11 cells (CTG method, 72 h). To be noted: Homo sapiens, MV4-11, 72 hours incubation, CellTiter-Glo. It is filed as cell-based. From the text:
• 1. Experimental Principle: MV-4-11 is a human leukemia cell line harboring MLL translocation and expressing the MLL fusion protein MLL-AF4. […] Experimental Materials: CellTiter-Glo was purchased from Promega (Cat. #G7571); IMDM medium was purchased from Gibco (Cat. #12440061); fetal bovine serum was purchased from Excell (Cat. #FND500); dimethyl sulfoxide (DMSO) was purchased from Sigma (Cat. #D2650); 384-well cell culture plates were purchased from Corning (Cat. #3756); automated cell counter was obtained from Life Technologies (Model: Countess II); microplate reader was obtained from PerkinElmer (Model: EnVision Multilabel Reader). • 3. Experimental Methods: Cells in logarithmic growth phase were resuspended in growth medium (IMDM + 10% FBS) and diluted to the target density (50,000/mL). The cell suspension was seeded into 384-well plates at 50 µL per well and incubated overnight at 37°C in a 5% CO2 incubator.
Test compounds were dissolved in DMSO to prepare 10 mM stock solutions. The stock solutions were first diluted to 2 mmol/L with DMSO, followed by 3-fold serial dilutions to generate 10 concentrations. From each concentration, 5.5 µL was diluted with 94.5 µL growth medium. The diluted solutions were then added to the 384-well plates containing seeded cells at 5 µL per well.
Cells treated with test compounds were incubated at 37°C in a 5% CO2 incubator for 72 hours. The 384-well plates were equilibrated at room temperature, and 15 µL of CellTiter-Glo reagent was added to each well. The plates were mixed on a vortex mixer for 2 minutes and incubated at room temperature for 60 minutes. Luminescence values were read using the EnVision Multilabel Reader, and IC50 values were calculated using GraphPad Prism 5.0 software.
In general terms: Cellular ATP, detected with luciferase, serves as a proxy for viable cell number.

A short description of data set [2]: Pharmacokinetics in mice after single IV and PO administration (LC-MS/MS). In kind it is in vivo, male ICR mice. To be noted: ICR mice. How it is done: • 1. Objective: This study aimed to characterize the pharmacokinetic properties of selected compounds from the examples of the present invention in male ICR mice following single intravenous (IV) injection and oral (PO) administration using LC-MS/MS methodology. • 2. Experimental Materials: Test compounds were prepared according to the examples of the present invention; male ICR mice were obtained from Shanghai Jihui Laboratory Animal Breeding Co., Ltd. (License No. SCXK(Shanghai)2022-0009). • 3. Experimental Methods: Preparation of 0.5% methylcellulose (pH = 4.91): 5 g of methylcellulose was weighed and dissolved in 1000 mL of purified water, and the pH was adjusted to 4.91 with 100 mM citric acid.
Preparation of oral formulations: The required amount of test compound was weighed and dissolved in 0.5% methylcellulose (pH = 4.91) solution to obtain a suspension or solution at 3 mg/mL.
Preparation of intravenous injection formulations: The required amount of test compound was weighed and dissolved in 0.5 mL dimethyl sulfoxide to prepare a 12 mg/mL solution. To 0.25 mL of this solution, 0.5 mL of polyethylene glycol 15-hydroxystearate (Solutol) and 4.25 mL of normal saline were added to obtain a 0.6 mg/mL solution.
Dosing: Male ICR mice were fasted overnight prior to oral (PO) administration; fasting was not required for the single intravenous (IV) injection group. Food was provided 4 hours post-dosing.
Sample Collection: Blood was collected from the jugular vein or other suitable veins, with 0.03 mL collected at each time point. Samples were placed in tubes containing dipotassium ethylenediaminetetraacetate and kept on ice prior to centrifugation. Within 1 hour of blood collection, samples were centrifuged at 6800 × g for 6 minutes at 2-8°C and stored at -80°C. Blood sampling time points for intravenous administration were 0.083, 0.25, 0.5, 1, 2, 4, 8, 24, and 32 hours post-dosing. Blood sampling time points for oral administration were 0.25, 0.5, 1, 2, 4, 8, 24, and 32 hours post-dosing.

Like-named read-outs stand apart in the source and are kept apart here.

As usually defined, the IC50 is the concentration that gives 50% inhibition. Low values mean inhibition by little substance, high ones a need for much substance. The AUC(0-t) is the area under the concentration-time curve up to a stated or last time point. Broadly, the Cmax is the maximum level reached in the sampled fluid or tissue.

Turning to `CCN(C(=O)c1cc(F)ccc1N1CCN([C@@H]2CCN([C@H](CCCN(C)CCOC)C(C)C)C2)c2ncncc21)C(C)C` [Example 3], the midpoint of inhibition in data set [1], the IC50, lay at 22.9 nM. The “PO F” value in data set [2] (PO 30 mg/kg vs IV 3 mg/kg) was determined as 25.6%. The exposure AUC(0-t) was 429 ng·h/mL in data set [2] (mouse, in vivo, IV 3 mg/kg, read-out: IV AUC(0-t)) and 1100 ng·h/mL in data set [2] (mouse, in vivo, PO 30 mg/kg, 0.5% methylcellulose (pH = 4.91), read-out: PO AUC(0-t)). Moreover, the clearance in data set [2] (mouse, in vivo, IV 3 mg/kg, read-out: IV CL) stood at 104 mL/min/kg. For the same compound, the Cmax came out at 418 ng/mL in data set [2] (mouse, in vivo, IV 3 mg/kg, read-out: IV Cmax) and 293 ng/mL in data set [2] (mouse, in vivo, PO 30 mg/kg, 0.5% methylcellulose (pH = 4.91), read-out: PO Cmax). Further, in data set [2] (mouse, in vivo, IV 3 mg/kg, read-out: IV Vss), the Vd came to 65.1 L/kg. For the same compound, the half-life is 10.9 h in data set [2] (mouse, in vivo, IV 3 mg/kg, read-out: IV t1/2 (converted)) and 6.49 h in data set [2] (mouse, in vivo, PO 30 mg/kg, 0.5% methylcellulose (pH = 4.91), read-out: PO t1/2 (converted)).

The values above are taken from patent publication EP4775580A1, “COMPOUND, PHARMACEUTICAL COMPOSITION COMPRISING SAME, AND USE THEREOF” (Euregen Biopharma Co., Ltd., priority 2023, dated 2025).
